The structures appear in SMILES notation. Where only a bound is given, the exact number is not on record here.

One test deals with T1, lysozyme (Gallus gallus, UniProt P00698).
T1 construct: purchased Sigma-Aldrich
Briefly: Voltammetry, interaction with lysozyme. As to conditions: 100 μM complex. The method, then: The pH of buffers was monitored on a Accumet XL50 pH meter. A GR-2000 electrical balance was used to weigh the various chemicals. Electrochemical measurements for cyclic voltammetry and square wave voltammetry were performed using Autolab instruments (Metrohm; Netherlands). […] The GCE was polished as a mirror-like surface with alumina slurry on a synthetic cloth before every electrochemical analysis. Square wave voltammetry and cyclic voltammetry were scanned from 0 to 1.3 V for the various analyses. Elemental analyses of gold(III) complexes (C1-C8) were performed on PerkinElmer Series 11 (CHNS/O), Analyzer 2400.
The electrochemical investigation of the interactions between the gold(III) complexes (C1-C8) and lysozyme, tryptophan and guanine was performed using the Autolab instrument described above, with a three-electrode system (CH Instruments): platinum wire counter electrode (CHI115), Ag/AgCl reference electrode (in 3 M KCl, CHI111) and glassy carbon working electrode (CHI112) inserted into a 5.0 ml glass cell. Solutions of 1 mM lysozyme, 5 mM tryptophan and 5 mM guanine were prepared in double distilled water, and the experiment was performed in 0.1 M phosphate buffer at pH 6.8.

The subject of test [1] is ovarian cancer cell line A2780. Briefly: Cytotoxicity assay (MTT, 72 h). It counts as cell-based, human. As to conditions: A2780, MTT after 72 h, mean (SD). The method, then:
(§1) R-ME-180 and A2780cis cells were maintained in 1 μM cisplatin. Adipose-derived stromal cells were maintained in MSCGM BulletKit medium (Lonza). All cell lines were cultured at 37° C. in a 5% CO2, fully humidified atmosphere
(§2) Cell lines were seeded in 96-well flat-bottomed microplates in 100 μL culture medium at the following densities: DU145, PC3 and MCF-7 cells (2.5×10^3 cells/well); A2780, A2780cis, ME-180, R-ME-180 and A549 cells (4.0×10^3 cells/well); and MG-63 cells (2.0×10^3 cells/well). Cells were allowed to adhere for 24 h. Then the medium was replaced with fresh medium alone or with one of the gold(III) complexes at increasing concentrations from 0 to 100 μM. The reference drugs cisplatin (0-100 μM) and doxorubicin (0-1 μM) were included as positive controls for growth inhibition. After 72 h, cell viability was assayed using the MTT assay.
(§3) See Chou T. C.; Talalay P. Quantitative analysis of dose-effect relationships: the combined effects of multiple drugs or enzyme inhibitors. […] 22, 27-55, incorporated herein by reference in its entirety. IC50 values were reported as mean (SD). For drug-resistance cell lines, fold resistance (FR) was calculated as the ratio of the IC50 of the resistant cell line to the IC50 of the parental cell line.

The test system of test [2] is cisplatin-resistant R-ME-180 clone. Kind of test: Cytotoxicity assay (MTT, 72 h). As to conditions: for FR (R-ME-180/ME-180), fold resistance: IC50 R-ME-180 / IC50 ME-180; for IC50: R-ME-180, MTT after 72 h, mean (SD). It counts as cell-based, human. The procedure:
as §1, §2, §3

In test [3] the test system is MG-63 osteosarcoma cell line. Kind of test: Cytotoxicity assay (MTT, 72 h). It counts as cell-based, human. The settings on record: MG63, MTT after 72 h, mean (SD); read-out: Half-maximal inhibitory concentration (IC50). The procedure: as §1, §2, §3
Test [4] relates to A549 lung cancer cell line. Briefly: Cytotoxicity assay (MTT, 72 h). It counts as cell-based, human. The settings on record: A549, MTT after 72 h, mean (SD); read-out: Half-maximal inhibitory concentration (IC50). The method, then: as §1, §2, §3
Test [5] deals with PC3 prostate cancer cell line. Kind of test: Cytotoxicity assay (MTT, 72 h). Type of test: cell-based, human. As to conditions: PC3, MTT after 72 h, mean (SD); read-out: Half-maximal inhibitory concentration (IC50). The procedure: as §1, §2, §3
Test [6] relates to cervical cancer cell line ME-180. Kind of test: Cytotoxicity assay (MTT, 72 h). Type of test: cell-based, human. As to conditions: ME-180, MTT after 72 h, mean (SD). The method, then: as §1, §2, §3
Test [7] concerns cisplatin- and doxorubicin-resistant A2780cis clone. Briefly: Cytotoxicity assay (MTT, 72 h). Type of test: cell-based, human. As to conditions: for IC50: A2780cis, MTT after 72 h, mean (SD); for FR (A2780cis/A2780), fold resistance: IC50 A2780cis / IC50 A2780. The procedure:
as §1, §2, §3

Test [8] concerns DU145 prostate cancer cell line. Briefly: Cytotoxicity assay (MTT, 72 h). It counts as cell-based, human. The settings on record: DU145, MTT after 72 h, mean (SD); read-out: Half-maximal inhibitory concentration (IC50). The method, then: as §1, §2, §3
Test [9] relates to MCF-7 breast cancer cell line. Kind of test: Cytotoxicity assay (MTT, 72 h). Type of test: cell-based, human. The settings on record: MCF-7, MTT after 72 h, mean (SD); read-out: Half-maximal inhibitory concentration (IC50). The procedure:
as §1, §2, §3

[10] abbreviates: CV, 0 μM lysozyme, 0.1 M phosphate buffer pH 6.8.

T1 sequence (P00698 19-147): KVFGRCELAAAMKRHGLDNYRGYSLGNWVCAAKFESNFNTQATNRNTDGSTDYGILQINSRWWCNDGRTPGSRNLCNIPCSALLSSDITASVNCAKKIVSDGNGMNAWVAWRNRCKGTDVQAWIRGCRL

In the case of `Oc1ccc[n+]2c1-c1c(O)ccc[n+]1[Au-]2([Cl])[Cl].[Cl-]` [C1, [Au(BPYH)(Cl)2]Cl], the Voltammetry peak potential came to 0.739 V on lysozyme (setting [10]); 0.8142 V on lysozyme (CV, 1 μM lysozyme, pH 6.8); 0.8319 V at lysozyme (CV, 4 μM lysozyme, pH 6.8); 0.8762 V on lysozyme (CV, 10 μM lysozyme, pH 6.8); 0.7934 V at lysozyme (SWV, 0 μM lysozyme, pH 6.8); 0.8034 V at lysozyme (SWV, 1 μM lysozyme, pH 6.8). The Voltammetry peak potential on lysozyme (SWV, 4 μM lysozyme, pH 6.8) came to 0.8387 V; at lysozyme (SWV, 10 μM lysozyme, pH 6.8), 0.8639 V. The IC50 in test [1] was 23 µM; in [2], 72 µM; in test [3] it was 43 µM; in [4], > 80 µM; in test [5], 28.3 µM; in test [6], 70 µM. Moreover, the IC50 came to 24 µM in [7], 39 µM in test [8] and 59 µM in test [9]. In test [2], the “FR (R-ME-180/ME-180), fold resistance” value was 1.0. For the same compound, the “FR (A2780cis/A2780), fold resistance” value in test [7] was found to be 1.0.
Consider `CN(C)C1=[S+][Au-]2([S]1)[n+]1cccc(O)c1-c1c(O)ccc[n+]12.[Cl-].[Cl-]` [C2, [Au(BPYH)(DMDTC)]Cl2], for which the Voltammetry peak potential at lysozyme (setting [10]) was determined as 0.7921 V; on lysozyme (CV, 1 μM lysozyme, pH 6.8), 0.8009 V; at lysozyme (CV, 4 μM lysozyme, pH 6.8), 0.8186 V; at lysozyme (CV, 10 μM lysozyme, pH 6.8), 0.8319 V; at lysozyme (SWV, 0 μM lysozyme, pH 6.8) it was 0.7883 V; at lysozyme (SWV, 1 μM lysozyme, pH 6.8), 0.7934 V. Besides, the Voltammetry peak potential came out at 0.8085 V at lysozyme (SWV, 4 μM lysozyme, pH 6.8) and 0.8135 V on lysozyme (SWV, 10 μM lysozyme, pH 6.8). For the same compound, the IC50 in test [1] came out at 0.9 µM; in [2], 21 µM; in test [3], 3.8 µM; in test [4], 6.1 µM; in [5], 1.5 µM; in test [6], 14 µM. In addition, the values for the IC50 in [7], in test [8] and in test [9] were 0.8 µM, 2.8 µM and 2.3 µM, respectively. Also, in [2], the “FR (R-ME-180/ME-180), fold resistance” value came out at 1.5. Besides, the “FR (A2780cis/A2780), fold resistance” value in test [7] is recorded as 0.9.
As to `CCN(CC)C1=[S+][Au-]2([S]1)[n+]1cccc(O)c1-c1c(O)ccc[n+]12.[Cl-].[Cl-]` [C3, [Au(BPYH)(DEDTC)]Cl2], the Voltammetry peak potential at lysozyme (setting [10]) was determined as 0.7965 V; on lysozyme (CV, 1 μM lysozyme, pH 6.8), 0.8098 V; at lysozyme (CV, 4 μM lysozyme, pH 6.8), 0.8231 V; at lysozyme (CV, 10 μM lysozyme, pH 6.8) it was 0.8363 V; at lysozyme (SWV, 0 μM lysozyme, pH 6.8), 0.7934 V; at lysozyme (SWV, 1 μM lysozyme, pH 6.8) it was 0.8034 V. Besides, the Voltammetry peak potential at lysozyme (SWV, 4 μM lysozyme, pH 6.8) is on record as 0.8135 V; at lysozyme (SWV, 10 μM lysozyme, pH 6.8), 0.8236 V. Further, the “FR (R-ME-180/ME-180), fold resistance” value in test [2] came out at 1.3. In addition, the IC50 in test [2] was determined as 3.8 µM; in test [3], 1.2 µM; in test [4], 3.8 µM; in [5] it was 1.3 µM; in test [7] it was 0.4 µM; in test [8], 3.5 µM. Besides, in test [9], the IC50 came to 1.7 µM. The “FR (A2780cis/A2780), fold resistance” value in test [7] is reported as 1.1.
Regarding `Oc1ccc[n+]2c1-c1c(O)ccc[n+]1[Au-]21[S]C(N(Cc2ccccc2)Cc2ccccc2)=[S+]1.[Cl-].[Cl-]` [C4, [Au(BPYH)(DBDTC)]Cl2], the Voltammetry peak potential at lysozyme (setting [10]) was determined as 0.7965 V; on lysozyme (CV, 1 μM lysozyme, pH 6.8), 0.8098 V; at lysozyme (CV, 4 μM lysozyme, pH 6.8), 0.8186 V; on lysozyme (CV, 10 μM lysozyme, pH 6.8) it was 0.8275 V; at lysozyme (SWV, 0 μM lysozyme, pH 6.8), 0.7883 V; on lysozyme (SWV, 1 μM lysozyme, pH 6.8), 0.7934 V. Moreover, the Voltammetry peak potential on lysozyme (SWV, 4 μM lysozyme, pH 6.8) worked out at 0.8085 V; at lysozyme (SWV, 10 μM lysozyme, pH 6.8) it was 0.8135 V. Further, the IC50 amounted to 7.3 µM in test [1]; 30 µM in test [2]; 12.3 µM in [3]; 25 µM in [4]; 8.5 µM in test [5]; 30 µM in test [6]. In addition, the IC50 in test [7] worked out at 8.2 µM; in test [8] it was 6.4 µM; in [9] it was 13 µM. Also, the “FR (R-ME-180/ME-180), fold resistance” value in [2] is given as 1.0. For the same compound, in test [7], the “FR (A2780cis/A2780), fold resistance” value was determined as 1.1.
Regarding `[Cl-].[Cl-].[Cl][Au-]1([Cl])[n+]2ccc[n+]3c2-c2[n+]1ccc[n+]2[Au-]3([Cl])[Cl]` [C5, [Au2(BPM)(Cl)4]Cl2], the IC50 in [1] is 15.4 µM; in [2], > 80 µM; in [3], 26 µM; in [4] it was > 80 µM; in [5] it was > 80 µM; in test [6], > 80 µM. Moreover, the IC50 in [7] is 16.2 µM; in test [8] it was > 80 µM; in test [9] it was 65 µM. The “FR (A2780cis/A2780), fold resistance” value in test [7] was 1.1.
As to `[Cl-].[Cl-].[Cl-].[Cl-].c1ccc(C[N+](Cc2ccccc2)=C2[S][Au-]3([S]2)[n+]2ccc[n+]4c2-c2[n+]3ccc[n+]2[Au-]42[S]C(=[N+](Cc3ccccc3)Cc3ccccc3)[S]2)cc1` [C8, [Au2(BPM)(DBDTC)2]Cl4], the IC50 in [1] amounted to 3.8 µM; in test [2], 16 µM; in [3] it was 5.8 µM; in test [4], 23 µM; in [5], 19.5 µM; in test [6], 15 µM. Moreover, the IC50 in [7] stood at 5.2 µM; in test [8] it was 22.8 µM; in test [9], 9.5 µM. The “FR (R-ME-180/ME-180), fold resistance” value in test [2] is 1.0. The “FR (A2780cis/A2780), fold resistance” value in test [7] was 1.4.
As to `N.N.[Cl][Pt][Cl]` [Cisplatin, reference compound], the IC50 in test [1] was determined as 1.5 µM; in test [2], 68 µM; in [5] it was 3.3 µM; in test [6], 15 µM; in test [7] it was 10.4 µM; in [8], 4.5 µM. Also, the “FR (R-ME-180/ME-180), fold resistance” value in [2] was determined as 4.5. Further, the “FR (A2780cis/A2780), fold resistance” value in [7] is on record as 6.9.
Turning to `COc1cccc2c1C(=O)c1c(O)c3c(c(O)c1C2=O)C[C@@](O)(C(=O)CO)C[C@@H]3O[C@H]1C[C@H](N)[C@H](O)[C@H](C)O1` [Doxorubicin, reference compound], the values for the IC50 in test [1] (Homo sapiens) and in test [7] (Homo sapiens) were 0.02 µM and 0.12 µM, respectively. Besides, in test [7], the “FR (A2780cis/A2780), fold resistance” value was determined as 9.0.
